Test results published in US11584714B2 (priority 2018, dated 2023).
pKi: −log10 of the molar value. Structures can show the parent of a compound that is named as a salt. Where two headings read alike, the source gives them in different places.

Legend:
Format in all cases: biochemical
MASP-2 (CCP1-CCP2-SP) = MASP-2 (CCP1-CCP2-SP) (Homo sapiens (Human), UniProt O00187); assay: biochemical
human α-thrombin = human α-thrombin (Homo sapiens (Human), UniProt P00734); assay: Enzymatic assay for thrombin (Boc-VPR-AMC substrate); details: for Ki: Thrombin Ki (μM); for pKi: read-out: Thrombin Ki
mMASP-2 = mMASP-2 (Mus musculus (Mouse), UniProt Q91WP0); assay: Enzymatic inhibition of mMASP-2; details: read-out: mMASP-2 Ki
mMASP-2, sequence (Q91WP0 20-685): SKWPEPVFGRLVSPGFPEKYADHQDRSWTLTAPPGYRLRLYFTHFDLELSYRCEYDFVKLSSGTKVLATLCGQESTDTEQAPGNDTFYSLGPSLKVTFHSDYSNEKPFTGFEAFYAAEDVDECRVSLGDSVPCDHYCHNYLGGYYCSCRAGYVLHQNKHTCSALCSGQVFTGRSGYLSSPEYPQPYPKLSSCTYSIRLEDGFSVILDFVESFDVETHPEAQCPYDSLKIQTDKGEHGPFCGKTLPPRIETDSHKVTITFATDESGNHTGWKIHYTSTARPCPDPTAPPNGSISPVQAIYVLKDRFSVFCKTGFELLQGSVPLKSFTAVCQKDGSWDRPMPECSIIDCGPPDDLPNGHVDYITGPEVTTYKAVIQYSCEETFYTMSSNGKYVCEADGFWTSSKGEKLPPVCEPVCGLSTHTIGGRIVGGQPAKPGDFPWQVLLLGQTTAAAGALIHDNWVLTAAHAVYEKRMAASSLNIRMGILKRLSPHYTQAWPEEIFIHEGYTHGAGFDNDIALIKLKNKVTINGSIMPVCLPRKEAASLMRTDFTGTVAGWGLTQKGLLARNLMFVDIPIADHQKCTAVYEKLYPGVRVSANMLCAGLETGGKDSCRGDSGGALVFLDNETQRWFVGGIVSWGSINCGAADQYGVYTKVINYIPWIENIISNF

[1] = selectivity for MASP-2 inhibition versus thrombin
[2] = MASP-2 inhibition versus thrombin

MASP-2 (CCP1-CCP2-SP), sequence (O00187 445-686): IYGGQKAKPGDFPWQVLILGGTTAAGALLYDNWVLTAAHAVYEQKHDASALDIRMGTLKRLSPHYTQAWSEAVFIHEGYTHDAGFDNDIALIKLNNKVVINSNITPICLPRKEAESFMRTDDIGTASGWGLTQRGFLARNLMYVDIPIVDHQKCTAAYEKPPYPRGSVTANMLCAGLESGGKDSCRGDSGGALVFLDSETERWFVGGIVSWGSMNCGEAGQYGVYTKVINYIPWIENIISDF

Compound	pKi (MASP-2 (CCP1-CCP2-SP); read-out: MASP-2 Ki)	MASP-2 vs. thrombin selectivity (MASP-2 (CCP1-CCP2-SP); [1])	Ki (human α-thrombin)	pKi (mMASP-2)	pKi (human α-thrombin)	pKi (MASP-2 (CCP1-CCP2-SP))	MASP-2 vs. thrombin selectivity (MASP-2 (CCP1-CCP2-SP); [2])
N=C(N)c1ccc(CNC(=O)[C@H](CCC(N)=O)NC(=O)[C@H](N)CCc2ccccc2)cc1 [compound 1335, (S)-2-((R)-2-Amino-4-phenylbutanamido)-N-(4-carbamimidoylbenzyl)pentanediamide Di-trifluoroacetate]	> 6.30	*** (≥25 to <100-fold)	2.5 to 10 µM	> 6.30			
C[C@H](NC(=O)[C@@H](CCc1ccccc1)NCc1ccc(OCCO)cc1)C(=O)NCc1ccc(C(=N)N)cc1 [compound 1236, (R)—N—((S)-1-((4-Carbamimidoylbenzyl)amino)-1-oxopropan-2-yl)-2-((4-(2-hydroxyethoxy)benzyl)amino)-4-phenylbutanamide]	> 6.30	* (≥1.0 to <5.0-fold)		> 6.30	> 6.30		
Cc1cc(Cl)cc(CNC(=O)[C@H](C)NC(=O)[C@H]2C[C@H](Cc3ccc(Br)cc3)CN2)c1O [compound 1374, (2R,4S)-4-(4-bromobenzyl)-N-((S)-1-((5-chloro-2-hydroxy-3-methylbenzyl)amino)-1-oxopropan-2-yl)pyrrolidine-2-carboxamide Hydrochloride]	> 6.30			> 6.30	< 4.60		
CC(=O)Nc1ccc(CCN[C@H](CCc2ccccc2)C(=O)N[C@@H](C)C(=O)NCc2ccc(N)nc2C)cc1 [compound 1368, (R)-2-((4-Acetamidophenethyl)amino)-N-((S)-1-(((6-amino-2-methylpyridin-3-yl)methyl)amino)-1-oxopropan-2-yl)-4-phenylbutanamide Dihydrochloride]		** (≥5.0 to <25-fold)		4.60 to 5.00	< 4.60	5.60 to 6.30	
C[C@H](NC(=O)c1nc(-c2ccccc2)cs1)C(=O)NCc1ccc(C(=N)N)cc1 [compound 1286, (S)—N-(1-((4-Carbamimidoylbenzyl)amino)-1-oxopropan-2-yl)-4-phenylthiazole-2-carboxamide]		−− (<1.0-fold)	0.5 to 2.5 µM	> 6.30		5.00 to 5.60	
C[C@H](NC(=O)c1cc(-c2ccccc2)n[nH]1)C(=O)NCc1ccc(C(=N)N)cc1 [compound 1295, (S)—N-(1-((4-Carbamimidoylbenzyl)amino)-1-oxopropan-2-yl)-3-phenyl-1H-pyrazole-5-carboxamide]	> 6.30	*** (≥25 to <100-fold)	2.5 to 10 µM	> 6.30			
Cc1nc(N)ccc1CNC(=O)[C@H](C)NC(=O)[C@H]1C[C@H](Cc2csc(Cl)c2)CN1 [compound 1461, (2R,4S)—N—((S)-1-(((6-Amino-2-methylpyridin-3-yl)methyl)amino)-1-oxopropan-2-yl)-4-((5-chlorothiophen-3-yl)methyl)pyrrolidine-2-carboxamide Dihydrochloride]	> 6.30	**** (≥100-fold)	0.5 to 2.5 µM	> 6.30			
Cc1cc(C[C@@H]2CN[C@@H](C(=O)N[C@@H](C)C(=O)NCc3cnc4c(c3)c(Cl)cn4C)C2)ccn1 [compound 1468, Trifluoroacetate]	> 6.30	**** (≥100-fold)		> 6.30	< 4.60		
C[C@H](NC(=O)[C@H]1C[C@H](Cc2ccccc2-c2ccc(Cl)s2)CN1)C(=O)NCc1cc(Cl)ccc1-n1cnnn1 [compound 1409, (2R,4S)—N—((S)-1-((5-Chloro-2-(1H-tetrazol-1-yl)benzyl)amino)-1-oxopropan-2-yl)-4-(2-(5-chlorothiophen-2-yl)benzyl)pyrrolidine-2-carboxamide Trifluoroacetate]	> 6.30	* (≥1.0 to <5.0-fold)		5.00 to 5.60	> 6.30		
C[C@H](NC(=O)[C@H](CCc1ccccc1)NCc1c[nH]c2ccccc12)C(=O)NCc1ccc(C(=N)N)cc1 [compound 1223]	> 6.30			> 6.30	> 6.30		*** (25 to 100-fold)
Cc1nc(N)ccc1CNC(=O)[C@H](C)NC(=O)[C@H]1C[C@H](Cc2cccc(-c3ccccc3)c2)CN1 [compound 1406, (2R,4S)-4-([1,1′-Biphenyl]-3-ylmethyl)-N-((S)-1-(((6-amino-2-methylpyridin-3-yl)methyl)amino)-1-oxopropan-2-yl)pyrrolidine-2-carboxamide Dihydrochloric acid]	> 6.30	**** (≥100-fold)	2.5 to 10 µM	> 6.30			
C[C@H](NC(=O)[C@H]1C[C@H](Cc2ccc(F)c(Cl)c2)CN1CC(=O)O)C(=O)NCc1cnc2c(c1)c(Cl)cn2C [compound 1484, 2-((2R,4S)-2-(((S)-1-(((3-Chloro-1-methyl-1H-pyrrolo[2,3-b]pyridin-5-yl)methyl)amino)-1-oxopropan-2-yl)carbamoyl)-4-(3-chloro-4-fluorobenzyl)pyrrolidin-1-yl)acetic acid Trifluoroacetate salt]				5.60 to 6.30	< 4.60	5.60 to 6.30	
C[C@H](NC(=O)[C@H](N)CCc1ccccc1)C(=O)NCc1cc(Cl)ccc1CO [compound 1287, (R)-2-amino-N—((S)-1-((5-Chloro-2-(hydroxymethyl)benzyl)amino)-1-oxopropan-2-yl)-4-phenylbutanamide]				< 4.60	< 4.60	4.60 to 5.00	
Cc1nc(N)ccc1CNC(=O)[C@H](C)NC(=O)[C@H]1C[C@H](Cc2cccc(C(F)(F)F)c2)C(=O)N1 [compound 1320, (2R,4S)—N—((S)-1-(((6-Amino-2-methylpyridin-3-yl)methyl)amino)-1-oxopropan-2-yl)-5-oxo-4-(3-(trifluoromethyl)benzyl)pyrrolidine-2-carboxamide Di-trifluoroacetate salt]	> 6.30	** (≥5.0 to <25-fold)	0.5 to 2.5 µM	5.60 to 6.30			
Cc1nc(N)ccc1CNC(=O)[C@H](C)NC(=O)[C@H]1C[C@H](Cc2cc(Br)no2)CN1 [compound 1421, (2R,4R)—N—((S)-1-(((6-Amino-2-methylpyridin-3-yl)methyl)amino)-1-oxopropan-2-yl)-4-((3-bromoisoxazol-5-yl)methyl)pyrrolidine-2-carboxamide Di-trifluoroacetate salt]	> 6.30	**** (≥100-fold)	10 to 25 µM	5.60 to 6.30			
Cc1cccc(CC[C@@H](N)C(=O)N[C@@H](C)C(=O)NCc2ccc(C(=N)N)cc2)c1 [compound 1046]	> 6.30			> 6.30	> 6.30		** (5.0 to 25-fold)
C[C@H](NC(=O)[C@H]1C[C@H](c2ccccc2)CN1)C(=O)NCc1cc(Br)cc2cn[nH]c12 [compound 1462, (2R,4R)—N—((S)-1-(((5-bromo-1H-indazol-7-yl)methyl)amino)-1-oxopropan-2-yl)-4-phenylpyrrolidine-2-carboxamide]		** (≥5.0 to <25-fold)	10 to 25 µM	5.00 to 5.60		5.60 to 6.30	
Cc1cccc([C@H]2CCN[C@@H](C(=O)N[C@@H](C)C(=O)NCc3ccc(C(=N)N)cc3)C2)c1 [compound 1231, (2R,4S)—N—((S)-1-((4-Carbamimidoylbenzyl)amino)-1-oxopropan-2-yl)-4-(m-tolyl)piperidine-2-carboxamide]	> 6.30	**** (≥100-fold)	2.5 to 10 µM	> 6.30			
C[C@H](NC(=O)[C@H]1C[C@H](c2ccccc2)CN1)C(=O)NCc1cc(Cl)ccc1NS(C)(=O)=O [compound 1274, (2R,4R)—N—((S)-1-((5-chloro-2-(methylsulfonamido)benzyl)amino)-1-oxopropan-2-yl)-4-phenylpyrrolidine-2-carboxamide]		** (≥5.0 to <25-fold)		4.60 to 5.00	< 4.60	5.00 to 5.60	
CCc1cccc([C@H]2CN[C@@H](C(=O)N[C@@H](C)C(=O)NCc3ccc(C(=N)N)cc3)C2)c1 [compound 1302, (2R,4S)—N—((S)-1-((4-Carbamimidoylbenzyl)amino)-1-oxopropan-2-yl)-4-(3-ethylphenyl)pyrrolidine-2-carboxamide Dihydrochloride]	> 6.30	*** (≥25 to <100-fold)	0.5 to 2.5 µM	> 6.30			
COc1cc(CNC(=O)[C@H](C)NC(=O)[C@H](N)CCc2ccccc2)cnc1N [compound 1266, (R)-2-Amino-N—((S)-1-(((6-amino-5-methoxypyridin-3-yl)methyl)amino)-1-oxopropan-2-yl)-4-phenylbutanamide]		** (≥5.0 to <25-fold)		< 4.60	< 4.60	5.60 to 6.30	
C[C@H](NC(=O)[C@H](N)CCc1ccc(Cl)cc1)C(=O)NCc1ccc(C(=N)N)cc1 [compound 1080]	> 6.30			> 6.30	> 6.30		** (5.0 to 25-fold)
Cc1nc(N)ccc1CNC(=O)[C@H](C)NC(=O)[C@H]1C[C@H](Cc2ccccc2-c2ccccc2)CN1 [compound 1373, (2R,4S)-4-([1,1′-Biphenyl]-2-ylmethyl)-N-((S)-1-(((6-amino-2-methylpyridin-3-yl)methyl)amino)-1-oxopropan-2-yl)pyrrolidine-2-carboxamide Di-trifluoroacetate salt]	> 6.30	*** (≥25 to <100-fold)	0.5 to 2.5 µM	> 6.30			
C[C@H](NC(=O)[C@H]1C[C@H](Cc2ccc(-c3ccc(F)cc3C(N)=O)cc2)CN1)C(=O)NCc1cc(Cl)ccc1-n1cnnn1 [compound 1405, (2R,4S)-4-((2′-Carbamoyl-4′-fluoro-[1,1′-biphenyl]-4-yl)methyl)-N-((S)-1-((5-chloro-2-(1H-tetrazol-1-yl)benzyl)amino)-1-oxopropan-2-yl)pyrrolidine-2-carboxamide Hydrochloride]	> 6.30	** (≥5.0 to <25-fold)	0.5 to 2.5 µM	5.60 to 6.30			
